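Assay format: 96-well plates, 48-hour exposure. GI50 is the concentration that inhibits growth by half. TGI denotes the concentration required for complete inhibition of growth.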
How the values were obtained:
Experiment in all cases: NCI tumour cell line growth inhibition, 48 h
IGROV1 ovarian = test system: IGROV1 ovarian
COLO 205 colon = test system: COLO 205 colon
HL-60(TB) leukemia = test system: HL-60(TB) leukemia
TK-10 renal = test system: TK-10 renal
SK-MEL-5 melanoma = test system: SK-MEL-5 melanoma
HOP-92 NSCLC = test system: HOP-92 NSCLC
SK-OV-3 ovarian = test system: SK-OV-3 ovarian
HCT-15 colon = test system: HCT-15 colon
SN12C renal = test system: SN12C renal
SF-539 CNS = test system: SF-539 CNS
SNB-75 CNS = test system: SNB-75 CNS
SNB-19 CNS = test system: SNB-19 CNS
NCI/ADR-RES ovarian = test system: NCI/ADR-RES ovarian
UO-31 renal = test system: UO-31 renal
UACC-257 melanoma = test system: UACC-257 melanoma
OVCAR-4 ovarian = test system: OVCAR-4 ovarian
CAKI-1 renal = test system: CAKI-1 renal
MALME-3M melanoma = test system: MALME-3M melanoma
HCC-2998 colon = test system: HCC-2998 colon
DU-145 prostate = test system: DU-145 prostate
KM12 colon = test system: KM12 colon
HCT-116 colon = test system: HCT-116 colon
HT29 colon = test system: HT29 colon
RXF 393 renal = test system: RXF 393 renal
SK-MEL-2 melanoma = test system: SK-MEL-2 melanoma
EKVX NSCLC = test system: EKVX NSCLC
BT-549 breast = test system: BT-549 breast
SF-295 CNS = test system: SF-295 CNS
ACHN renal = test system: ACHN renal
OVCAR-8 ovarian = test system: OVCAR-8 ovarian
NCI-H23 lung = test system: NCI-H23 lung
SK-MEL-28 melanoma = test system: SK-MEL-28 melanoma
NCI-H522 lung = test system: NCI-H522 lung
RPMI-8226 leukemia = test system: RPMI-8226 leukemia
NCI-H226 lung = test system: NCI-H226 lung
K-562 leukemia = test system: K-562 leukemia
CCRF-CEM leukemia = test system: CCRF-CEM leukemia
MDA-MB-231 breast = test system: MDA-MB-231 breast
UACC-62 melanoma = test system: UACC-62 melanoma
MDA-MB-435 = test system: MDA-MB-435
OVCAR-5 ovarian = test system: OVCAR-5 ovarian
OVCAR-3 ovarian = test system: OVCAR-3 ovarian
NCI-H460 lung = test system: NCI-H460 lung
PC-3 prostate = test system: PC-3 prostate
U251 CNS = test system: U251 CNS
A498 renal = test system: A498 renal
T-47D breast = test system: T-47D breast
M14 melanoma = test system: M14 melanoma
786-0 renal = test system: 786-0 renal
MOLT-4 leukemia = test system: MOLT-4 leukemia
HOP-62 NSCLC = test system: HOP-62 NSCLC
MCF7 breast = test system: MCF7 breast
LOX IMVI melanoma = test system: LOX IMVI melanoma
SW-620 colon = test system: SW-620 colon
SR leukemia = test system: SR leukemia
HS 578T breast = test system: HS 578T breast
A549 NSCLC = test system: A549 NSCLC
SF-268 CNS = test system: SF-268 CNS

How did the GI50 (IGROV1 ovarian) turn out when Cc1cnc(C(=O)Nc2nc3ccc(S(=O)(=O)Nc4ccc(C5(C(F)(F)F)CC5)cc4)cc3[nH]2)cn1 was run?
The GI50 was 0.606 µM.

What about the TGI (IGROV1 ovarian) of the same compound?
The TGI was 5.02 µM.

And the GI50 (COLO 205 colon)?
Its GI50 is 0.414 µM.

And the TGI (COLO 205 colon)?
Its TGI is 9.35 µM.

And the GI50 (HL-60(TB) leukemia)?
The GI50 was 0.296 µM.

And the TGI (HL-60(TB) leukemia)?
Its TGI is 0.924 µM.

What about the GI50 (TK-10 renal) of the same compound?
Its GI50 is 1.48 µM.

What about the TGI (TK-10 renal) of the same compound?
Its TGI is 12 µM.

What about the GI50 (SK-MEL-5 melanoma) of the same compound?
The GI50 was 0.232 µM.

And the TGI (SK-MEL-5 melanoma)?
The TGI was 3.85 µM.

What about the GI50 (HOP-92 NSCLC) of the same compound?
The GI50 was 0.387 µM.

What about the TGI (HOP-92 NSCLC) of the same compound?
The TGI was 6.46 µM.

And the GI50 (SK-OV-3 ovarian)?
Its GI50 is 1.57 µM.

What about the TGI (SK-OV-3 ovarian) of the same compound?
Its TGI is 22.7 µM.

What about the GI50 (HCT-15 colon) of the same compound?
The GI50 was 0.205 µM.

And the TGI (HCT-15 colon)?
The TGI was 5.09 µM.

And the GI50 (SN12C renal)?
Its GI50 is 0.519 µM.

What about the TGI (SN12C renal) of the same compound?
Its TGI is 5.87 µM.

And the GI50 (SF-539 CNS)?
Its GI50 is 0.314 µM.

And the TGI (SF-539 CNS)?
The TGI was 3.3 µM.

And the GI50 (SNB-75 CNS)?
Its GI50 is 0.183 µM.

What about the TGI (SNB-75 CNS) of the same compound?
The TGI was 0.786 µM.

What about the GI50 (SNB-19 CNS) of the same compound?
The GI50 was 0.553 µM.

And the TGI (SNB-19 CNS)?
Its TGI is 13.3 µM.

What about the GI50 (NCI/ADR-RES ovarian) of the same compound?
Its GI50 is 0.26 µM.

And the TGI (NCI/ADR-RES ovarian)?
Its TGI is 1.69 µM.

And the GI50 (UO-31 renal)?
Its GI50 is 0.481 µM.

And the TGI (UO-31 renal)?
Its TGI is 6.2 µM.

What about the GI50 (UACC-257 melanoma) of the same compound?
The GI50 was 5.13 µM.

What about the TGI (UACC-257 melanoma) of the same compound?
Its TGI is 29.9 µM.

What about the GI50 (OVCAR-4 ovarian) of the same compound?
The GI50 was 2.07 µM.

What about the TGI (OVCAR-4 ovarian) of the same compound?
Its TGI is 9.26 µM.

And the GI50 (CAKI-1 renal)?
Its GI50 is 0.36 µM.

And the TGI (CAKI-1 renal)?
The TGI was 15.7 µM.

What about the GI50 (MALME-3M melanoma) of the same compound?
The GI50 was 0.345 µM.

What about the TGI (MALME-3M melanoma) of the same compound?
Its TGI is 8.65 µM.

What about the GI50 (HCC-2998 colon) of the same compound?
The GI50 was 1.13 µM.

What about the TGI (HCC-2998 colon) of the same compound?
Its TGI is 10.4 µM.

What about the GI50 (DU-145 prostate) of the same compound?
Its GI50 is 0.357 µM.

And the TGI (DU-145 prostate)?
Its TGI is 2.23 µM.

And the GI50 (KM12 colon)?
Its GI50 is 0.309 µM.

And the TGI (KM12 colon)?
The TGI was 13 µM.

And the GI50 (HCT-116 colon)?
Its GI50 is 0.452 µM.

What about the TGI (HCT-116 colon) of the same compound?
The TGI was 10.5 µM.

What about the GI50 (HT29 colon) of the same compound?
Its GI50 is 0.364 µM.

And the TGI (HT29 colon)?
The TGI was 10.9 µM.

What about the GI50 (RXF 393 renal) of the same compound?
The GI50 was 0.226 µM.

And the TGI (RXF 393 renal)?
The TGI was 1.11 µM.

What about the GI50 (SK-MEL-2 melanoma) of the same compound?
Its GI50 is 0.784 µM.

And the TGI (SK-MEL-2 melanoma)?
The TGI was 20.1 µM.

And the GI50 (EKVX NSCLC)?
Its GI50 is 0.701 µM.

And the TGI (EKVX NSCLC)?
The TGI was 9.34 µM.

What about the GI50 (BT-549 breast) of the same compound?
Its GI50 is 0.965 µM.

What about the TGI (BT-549 breast) of the same compound?
The TGI was 12.7 µM.

And the GI50 (SF-295 CNS)?
Its GI50 is 0.237 µM.

And the TGI (SF-295 CNS)?
The TGI was 3.27 µM.

And the GI50 (ACHN renal)?
The GI50 was 0.552 µM.

And the TGI (ACHN renal)?
The TGI was 14 µM.

What about the GI50 (OVCAR-8 ovarian) of the same compound?
Its GI50 is 0.722 µM.

And the TGI (OVCAR-8 ovarian)?
Its TGI is 23.4 µM.

And the GI50 (NCI-H23 lung)?
The GI50 was 0.416 µM.

And the TGI (NCI-H23 lung)?
The TGI was 5.98 µM.

And the GI50 (SK-MEL-28 melanoma)?
Its GI50 is 1.19 µM.

And the TGI (SK-MEL-28 melanoma)?
The TGI was 12.2 µM.

And the GI50 (NCI-H522 lung)?
The GI50 was 0.251 µM.

What about the TGI (NCI-H522 lung) of the same compound?
The TGI was 11.2 µM.

What about the GI50 (RPMI-8226 leukemia) of the same compound?
The GI50 was 0.354 µM.

And the TGI (RPMI-8226 leukemia)?
The TGI was 6.86 µM.

And the GI50 (NCI-H226 lung)?
The GI50 was 0.566 µM.

What about the TGI (NCI-H226 lung) of the same compound?
The TGI was 6.34 µM.

What about the GI50 (K-562 leukemia) of the same compound?
The GI50 was 0.216 µM.

And the TGI (K-562 leukemia)?
Its TGI is 12.7 µM.

And the GI50 (CCRF-CEM leukemia)?
The GI50 was 0.379 µM.

And the TGI (CCRF-CEM leukemia)?
The TGI was 22.8 µM.

And the GI50 (MDA-MB-231 breast)?
The GI50 was 1.5 µM.

What about the TGI (MDA-MB-231 breast) of the same compound?
Its TGI is 15.6 µM.

What about the GI50 (UACC-62 melanoma) of the same compound?
Its GI50 is 0.372 µM.

And the TGI (UACC-62 melanoma)?
The TGI was 6.99 µM.

What about the GI50 (MDA-MB-435) of the same compound?
The GI50 was 0.0571 µM.

What about the TGI (MDA-MB-435) of the same compound?
Its TGI is 0.238 µM.

And the GI50 (OVCAR-5 ovarian)?
The GI50 was 0.785 µM.

What about the TGI (OVCAR-5 ovarian) of the same compound?
The TGI was 10.9 µM.

And the GI50 (OVCAR-3 ovarian)?
Its GI50 is 0.25 µM.

What about the TGI (OVCAR-3 ovarian) of the same compound?
Its TGI is 1.34 µM.

And the GI50 (NCI-H460 lung)?
Its GI50 is 0.351 µM.

And the TGI (NCI-H460 lung)?
The TGI was 3.95 µM.

What about the GI50 (PC-3 prostate) of the same compound?
The GI50 was 0.311 µM.

And the TGI (PC-3 prostate)?
The TGI was 4.39 µM.

What about the GI50 (U251 CNS) of the same compound?
The GI50 was 0.57 µM.

And the TGI (U251 CNS)?
The TGI was 5.4 µM.

What about the GI50 (A498 renal) of the same compound?
Its GI50 is 0.228 µM.

And the TGI (A498 renal)?
Its TGI is 0.882 µM.

What about the GI50 (T-47D breast) of the same compound?
The GI50 was 0.596 µM.

And the TGI (T-47D breast)?
The TGI was 17.2 µM.

And the GI50 (M14 melanoma)?
The GI50 was 0.328 µM.

And the TGI (M14 melanoma)?
Its TGI is 2.74 µM.

And the GI50 (786-0 renal)?
The GI50 was 0.484 µM.

And the TGI (786-0 renal)?
Its TGI is 6.65 µM.

And the GI50 (MOLT-4 leukemia)?
The GI50 was 0.501 µM.

And the TGI (MOLT-4 leukemia)?
Its TGI is 14.5 µM.

And the GI50 (HOP-62 NSCLC)?
The GI50 was 0.622 µM.

What about the TGI (HOP-62 NSCLC) of the same compound?
The TGI was 6.71 µM.

And the GI50 (MCF7 breast)?
Its GI50 is 0.287 µM.

And the TGI (MCF7 breast)?
The TGI was 5.68 µM.

What about the GI50 (LOX IMVI melanoma) of the same compound?
The GI50 was 0.539 µM.

And the TGI (LOX IMVI melanoma)?
Its TGI is 5.6 µM.

What about the GI50 (SW-620 colon) of the same compound?
Its GI50 is 0.369 µM.

And the TGI (SW-620 colon)?
The TGI was 5.92 µM.

And the GI50 (SR leukemia)?
The GI50 was 0.0777 µM.

What about the TGI (SR leukemia) of the same compound?
The TGI was > 39.5 µM.

What about the GI50 (HS 578T breast) of the same compound?
Its GI50 is 0.367 µM.

What about the TGI (HS 578T breast) of the same compound?
Its TGI is 6.54 µM.

And the GI50 (A549 NSCLC)?
Its GI50 is 0.57 µM.

And the TGI (A549 NSCLC)?
Its TGI is 9.66 µM.

And the GI50 (SF-268 CNS)?
The GI50 was 0.733 µM.

And the TGI (SF-268 CNS)?
The TGI was 11.9 µM.
